What is called GI50 is the concentration that inhibits growth by half.

Among the test systems are CAKI-1; CCRF-CEM; HCT-116; HL-60; IGROV-1; K562; LOX IMVI; MOLT-4; NCI-H460; OVCAR-3; OVCAR-4; SK-MEL-5; SK-OV-3; SR; SW-620; U-251; UACC-257; KM12; UACC-62; EKVX.
Assay in all cases: DTP human tumour cell line panel, 48 h

Molecules are shown by their SMILES.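 1) Cells in 96-well plates. 2) Compound, 48 h, 5 concentrations. 3) Linear interpolation between surrounding doses. 4) Unreached endpoint = highest concentration. GI50: concentration for 50% inhibition of growth.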 Active and inactive are the calls of the source. Rule as the data show it: active = GI50 up to about 1.1 µM and inactive = higher.

Regarding `CCOP(=O)(OCC)C(Cc1c[nH]c2ccccc12)C(=O)O` (configuration not stated), the GI50 in the test with CAKI-1, in the test on CCRF-CEM, in the test on HCT-116, in the test on HL-60, with IGROV-1 and in the test with K562 was > 100 µM (inactive) each time. In addition, the GI50 in the test with LOX IMVI, in the test with MOLT-4, with NCI-H460, with OVCAR-3, in the test with OVCAR-4 and in the test on SK-MEL-5 was > 100 µM (inactive) each time. Also, the GI50 in the test with SK-OV-3, in the test on SR, in the test on SW-620, in the test on U-251 and in the test on UACC-257 was > 100 µM (inactive) in each case.

On to `CC(NC(=O)c1ccc(OP(=O)(OCC2=CC(=O)c3ccccc3C2=O)N(C)CCCCCl)cc1)c1ccc(OCC2CCCCC2)c(C(N)=O)c1` (configuration not stated), for which the GI50 is 9.44 µM (inactive) in the test on CAKI-1; 7.71 µM (inactive) with CCRF-CEM; 14.3 µM (inactive) in the test with HCT-116; 14.5 µM (inactive) in the test with HL-60; 9.66 µM (inactive) in the test with IGROV-1; 17.4 µM (inactive) with K562. For the same compound, the GI50 in the test with KM12 is 12 µM (inactive); in the test on LOX IMVI it was 4.27 µM (inactive); in the test on MOLT-4, 12.3 µM (inactive); in the test on NCI-H460, 11 µM (inactive); with OVCAR-3, 1.41 µM (inactive); with SK-MEL-5, 0.328 µM (active). The GI50 with SK-OV-3 is 15.4 µM (inactive); with SR it was 12.6 µM (inactive); in the test with SW-620, 12.4 µM (inactive); in the test with U-251 it was 10.6 µM (inactive); with UACC-257, 4.59 µM (inactive); in the test on UACC-62, 9.64 µM (inactive).

Turning to `CNNC(=NS(=O)(=O)c1cc(C#N)c(NNC)cc1S)NNC`, the GI50 in the test on CAKI-1, with CCRF-CEM, in the test with EKVX, in the test with HCT-116, with HL-60 and with IGROV-1 was > 10 µM (inactive) each time. Further, the GI50 in the test on K562, in the test on KM12, in the test with LOX IMVI, in the test with MOLT-4, in the test on NCI-H460 and with OVCAR-3 was > 10 µM (inactive) each time. The GI50 in the test on OVCAR-4, with SK-MEL-5, with SK-OV-3, in the test on SR, in the test with SW-620 and in the test with U-251 was > 10 µM (inactive) throughout. Besides, in the test with UACC-257, the GI50 is > 10 µM (inactive).

Regarding `Cc1ccc(NC(=O)/C(=N\Nc2ccc([N+](=O)[O-])cc2[N+](=O)[O-])C2C(=O)NC(=O)NC2=O)cc1`, the GI50 in the test on CAKI-1 was > 100 µM (inactive); in the test on CCRF-CEM it was 31.8 µM (inactive); in the test with HCT-116 it was 62.4 µM (inactive); with HL-60 it was 35.7 µM (inactive); in the test with IGROV-1, 43.2 µM (inactive); in the test with K562, 26.2 µM (inactive). Also, the GI50 in the test on KM12 was 53.2 µM (inactive); in the test with LOX IMVI, > 100 µM (inactive); with NCI-H460, 71 µM (inactive); with OVCAR-3 it was > 100 µM (inactive); in the test on OVCAR-4, 65.5 µM (inactive); with SK-MEL-5, 33.2 µM (inactive). For the same compound, the GI50 in the test with SK-OV-3 was > 100 µM (inactive); in the test with SR, > 100 µM (inactive); in the test on SW-620 it was 45.7 µM (inactive); in the test on U-251, 38.6 µM (inactive); with UACC-257 it was > 100 µM (inactive); with UACC-62, 7.13 µM (inactive).

With `CC(=O)OCCCCn1cnc2c(Cl)nc(Nc3ccccc3)nc21`, the GI50 with CAKI-1 is 18.7 µM (inactive); with CCRF-CEM, > 100 µM (inactive); in the test with EKVX, > 100 µM (inactive); in the test with HCT-116, > 100 µM (inactive); in the test with HL-60, > 100 µM (inactive); with IGROV-1, > 100 µM (inactive). The GI50 with K562, in the test on KM12, in the test on LOX IMVI, in the test with MOLT-4, in the test with NCI-H460 and in the test with OVCAR-3 was > 100 µM (inactive) in each case. Besides, the GI50 was > 100 µM (inactive) in the test on OVCAR-4; 65.6 µM (inactive) in the test on SK-MEL-5; > 100 µM (inactive) with SR; > 100 µM (inactive) in the test on SW-620; > 100 µM (inactive) in the test on U-251; > 100 µM (inactive) in the test on UACC-257. The GI50 in the test with UACC-62 is > 100 µM (inactive).

On to `CN(COC(=O)C(C)(C)C)c1nc(N(C)COC(=O)C(C)(C)C)nc(N(C)COC(=O)C(C)(C)C)n1`, for which the GI50 is 36.7 µM (inactive) in the test with CAKI-1; 16.7 µM (inactive) with CCRF-CEM; > 100 µM (inactive) in the test with EKVX; 18.8 µM (inactive) with HCT-116; 29.2 µM (inactive) in the test on HL-60; > 100 µM (inactive) with IGROV-1. Also, the GI50 was 24 µM (inactive) with K562; > 100 µM (inactive) with KM12; 24.8 µM (inactive) with MOLT-4; 60 µM (inactive) with NCI-H460; > 100 µM (inactive) in the test on OVCAR-3; 82.4 µM (inactive) in the test with OVCAR-4. Besides, the GI50 in the test on SK-MEL-5 was 33.2 µM (inactive); in the test on SK-OV-3, > 100 µM (inactive); with SR, 29.1 µM (inactive); with SW-620 it was 22 µM (inactive); in the test on UACC-257 it was 98.2 µM (inactive); in the test on UACC-62, > 10 µM (inactive).

For `N#CCC(=O)N/N=C1\C(=O)N(c2ccc(Cl)cc2)C(=O)C(=O)C1c1nc2ccccc2o1` (configuration not stated), the GI50 in the test on CAKI-1, with CCRF-CEM, in the test on EKVX, with HCT-116, in the test on HL-60 and in the test on IGROV-1 was > 100 µM (inactive) each time. The GI50 in the test on KM12, with MOLT-4, with NCI-H460, with OVCAR-3, with OVCAR-4 and in the test with SK-MEL-5 was > 100 µM (inactive) throughout. In addition, the GI50 in the test on SK-OV-3, in the test on SR, in the test with SW-620, in the test on U-251, in the test with UACC-257 and with UACC-62 was > 100 µM (inactive) throughout.

On to `O=C(c1cccs1)N(C(=S)N1CCN(c2ccccc2)CC1)c1ccccc1`, for which the GI50 with CAKI-1, in the test with CCRF-CEM, in the test on HCT-116, in the test on HL-60, in the test with IGROV-1 and with K562 was > 100 µM (inactive) in each case. Moreover, the GI50 in the test on KM12, in the test with LOX IMVI, with MOLT-4, with NCI-H460, with OVCAR-3 and in the test with OVCAR-4 was > 100 µM (inactive) throughout. In addition, the GI50 with SK-MEL-5, in the test on SK-OV-3, in the test on SR, with SW-620, with U-251 and with UACC-257 was > 100 µM (inactive) throughout. For the same compound, the GI50 in the test on UACC-62 was > 100 µM (inactive).

With `Cc1ccc([N+](=O)[O-])cc1S(=O)(=O)Nc1ccc(C2=NN(c3ccc([N+](=O)[O-])cc3[N+](=O)[O-])C(c3ccccc3)C2)cc1` (configuration not stated), the GI50 in the test with CAKI-1 is 22.8 µM (inactive); in the test with CCRF-CEM, 22.1 µM (inactive); in the test on EKVX, 18.6 µM (inactive); in the test with HCT-116 it was 13 µM (inactive); in the test with HL-60, 20.3 µM (inactive); in the test with IGROV-1 it was 16.6 µM (inactive). The GI50 in the test on K562 was 16 µM (inactive); in the test on KM12 it was 18.3 µM (inactive); in the test on LOX IMVI it was 17.1 µM (inactive); with MOLT-4 it was 16.8 µM (inactive); in the test with OVCAR-3, 14.2 µM (inactive); in the test with OVCAR-4, 19.8 µM (inactive). In addition, the GI50 in the test with SK-MEL-5 is 11.9 µM (inactive); with SK-OV-3 it was 21 µM (inactive); with SR it was 22.4 µM (inactive); in the test with SW-620, 32.5 µM (inactive); in the test with U-251 it was 12.7 µM (inactive); in the test on UACC-257, 16.2 µM (inactive).

For `CCOC(=O)c1c(-c2ccccc2)c(C(OC(c2ccccc2)c2c(-c3ccccc3)c(C(=O)OCC)n3ccccc23)c2ccccc2)c2ccccn12` (configuration not stated), the GI50 in the test on CAKI-1, in the test with CCRF-CEM, with EKVX, in the test with HCT-116, in the test with HL-60 and in the test on IGROV-1 was > 100 µM (inactive) each time. For the same compound, the GI50 in the test on K562, in the test with KM12, in the test with LOX IMVI, in the test on MOLT-4, with NCI-H460 and in the test on OVCAR-3 was > 100 µM (inactive) each time. Also, the GI50 with OVCAR-4, in the test on SK-OV-3, with SR, in the test on SW-620, with UACC-257 and in the test with UACC-62 was > 100 µM (inactive) throughout.
